Reference: US20200087340A1, “LIF/LIFR ANTAGONIST IN ONCOLOGY AND NONMALIGNANT DISEASES” (Evestra, Inc., priority 2018, published 2020)

Legend:
[1] = tested on: NCI-H460; assay: NCI-60 screening, Non-Small Cell Lung Cancer; format: cell-based, human
[2] = tested on: HCC-2998; assay: NCI-60 screening, Colon Cancer; format: cell-based, human
[3] = tested on: T47D cells; assay: Soft agar colony formation assay; format: cell-based, human; conditions: 100 nM concentration
Protocol: Colonies of cancer cells formed in soft agar in the presence and absence of the testing compounds is a standard assay to interpret in-vitro tumorigenic potential in the basal layer. Agar was prepared by mixing 1% DNA grade agar melted and cooled to 40° C. with an equal volume of (2×) Dulbecco's Modified Eagle's Medium (DMEM) to obtain 0.5% agar that was dispersed in a 6-well plate and allowed to solidify. A total of 0.6% agar was prepared in RPMI medium and mixed together with T47D cells (0.5×10^6 cells/mL) and immediately plated on the basal layer in the presence or absence of testing compounds. The cultures were incubated at 37° C. in a CO2 incubator for 2 weeks, and colonies were stained with 0.005% crystal violet and observed under a light microscope.

[4] = tested on: MDA-MB-231 ATCC; assay: NCI-60 screening, Breast Cancer; format: cell-based, human
[5] = tested on: SK-MEL-5; assay: NCI-60 screening, Melanoma; format: cell-based, human
[6] = tested on: OVCAR-3; assay: NCI-60 screening, Ovarian Cancer; format: cell-based, human
Protocol: EC 330 was also tested using the NCI-60 Screening Methodology. The human tumor cell lines of the cancer screening panel are grown in RPMI 1640 medium containing 5% fetal bovine serum and 2 mM L-glutamine. For a typical screening experiment, cells are inoculated into 96 well microtiter plates in 100 μL at plating densities ranging from 5,000 to 40,000 cells/well depending on the doubling time of individual cell lines. After cell inoculation, the microtiter plates are incubated at 37° C., 5% CO2, 95% air and 100% relative humidity for 24 h prior to addition of experimental drugs. […]
Following drug addition, the plates are incubated for an additional 48 h at 37° C., 5% CO2, 95% air, and 100% relative humidity. […] Bound stain is subsequently solubilized with 10 mM trizma base, and the absorbance is read on an automated plate reader at a wavelength of 515 nm. […] Using the seven absorbance measurements [time zero, (Tz), control growth, (C), and test growth in the presence of drug at the five concentration levels (Ti)], the percentage growth is calculated at each of the drug concentrations levels. Percentage growth inhibition is calculated as: […]
Three dose response parameters are calculated for each experimental agent. […] The drug concentration resulting in total growth inhibition (TGI) is calculated from Ti=Tz. […]

[7] = tested on: MDA-MB-231 (TNBC) Xenograft; assay: Tumor xenograft study, MDA-MB-231; format: in vivo, mice
Protocol: Uniform suspensions of human breast cancer MDA-MB-231 and human ovarian cancer IGROV1 cells (2×10^6) in 100 μL (0.02 carboxymethyl cellulose in phosphate buffered saline) were injected subcutaneously into the right and left flanks of 4- to 5-week-old female athymic nude mice (Charles River Laboratories). After 10 days, when the tumor […] reaches 100 mm^3, the mice were randomly allocated to 3 groups of each containing 6 animals. […] All drug was suspended in PBS followed by sonication (15 seconds with an intermittent interval of 5 seconds) for 1 minute. Tumors were allowed to reach palpability before drug intervention. Tumor size was measured every 3 days using digital Vernier Calipers and tumor volume was calculated using the ellipsoid formula [D×(d2)]/2, where D is the large diameter of the tumor and d represents the small diameter. On day 31, the mice were euthanized and tumors were harvested for protein and gene expression studies. […] FIG. 6B depicts a graph of tumor volume vs. time for the administration of EC300 at 2.5 mg/kg twice weekly in the MDA-MB-231 (TNBC) Xenograft. […] FIG. 7 depicts a graph of tumor volume vs. time for the administration of EC300 at 5 mg/kg 5 days per week in the IGROV1 (Ovarian) Xenograft. […] STAT3 phosphorylation is reduced in tumors that underwent treatment compared to control which is an indication of LIF downstream target.

[8] = tested on: PC-3; assay: NCI-60 screening, Prostate Cancer; format: cell-based, human
[9] = tested on: MALME-3M; assay: NCI-60 screening, Melanoma; format: cell-based, human
[10] = tested on: UACC-257; assay: NCI-60 screening, Melanoma; format: cell-based, human
[11] = tested on: ACHN; assay: NCI-60 screening, Renal Cancer; format: cell-based, human
[12] = tested on: OVCAR-5; assay: NCI-60 screening, Ovarian Cancer; format: cell-based, human
[13] = tested on: DU-145; assay: NCI-60 screening, Prostate Cancer; format: cell-based, human

## C#CC(F)(F)[C@]1(O)CCC2C3CCC4=CC(=O)CCC4=C3C(c3ccc(C4CC4)cc3)C[C@@]21C (stereo partly drawn) [EC330, 17α-(1,1-difluoro-2-propyn-1-yl)-17β-hydroxy-11β-[4-p-(cyclopropyl)phenyl]estra-4,9-dien-3-one]
[1]
  TGI (log10TGI): −4.80
[2]
  TGI (log10TGI): −4.37
[3]
  colonies formed: complete inhibition or no colonies were formed
[4]
  TGI (log10TGI): −5.46
[5]
  TGI (log10TGI): −4.79
[6]
  TGI (log10TGI): −6.85
[7]; MDA-MB-231 breast cancer xenograft tumors
  apoptosis in xenograft tumors: induced apoptosis dose dependently
[7]; human triple negative breast cancer (TNBC) model
  tumor growth: significantly reduced
[8]
  TGI (log10TGI): −5.53
[9]
  TGI (log10TGI): <−8.00
[10]
  TGI (log10TGI): >−4.00
[11]
  TGI (log10TGI): −5.09
[12]
  TGI (log10TGI): −5.25
[13]
  TGI (log10TGI): −4.75
